Assay results: patent US12384798B2, “ACC inhibitor and use thereof” (NANJING RUIJIE PHARMA CO., LTD., priority 2019, dated 2025)
Where two headings read alike, the source gives them in different places.

Tests used:
[1] = tested on: ACC2; conditions: ACC isolated from rat, mouse, monkey and human; cited from earlier work
[2] = tested on: ACC1; conditions: ACC isolated from rat, mouse, monkey and human; cited from earlier work
[3] = Pharmacokinetic evaluation of compounds in rats; type: in vivo; conditions: SD rats; for Kp / Vd / AUC(0-inf) / Cmax / Tmax / half-life / bioavailability: male, rat; for Kp: liver/plasma, liver collected 1 h, 3 h and 24 h after dosage, read-out: L/P liver-to-blood ratio; for Vd / AUC(0-inf) / Cmax / Tmax / half-life / bioavailability: plasma; for Vd: intravenous, 2 mg/kg, read-out: Vss; for bioavailability: read-out: F (%) bioavailability
Excerpt: This example was intended to investigate the pharmacokinetics of the compounds of the present invention and ND630 in SD rats under the conditions of intravenous (iv) and intragastric administration (po). Unless otherwise stated, the experimental reagents and instruments are all commercially available. ND630 was Gilead's acetyl CoA carboxylase (ACC) inhibitor, with a structural formula as follows: […]
Formulation of compound: by taking a physiological saline solution of 5% DMSO+5% Solutol HS 15+90% HP-β-CD (20% w/v) as a solvent, a compound with the final concentration of 0.4 mg/mL was formulated for intravenous administration and a compound with the final concentration of 1 mg/mL was formulated for orally intragastric administration.
Animal feeding and management: male SD rats aged 6-8 weeks and weighing between 180-250 g were selected and raised in transparent resin plastic rate cages. Before administration, the rats were fasted overnight for at least 16 hours, and the feed supply was restored 4 hours after administration.
For the intravenous injection administration group, the dose was 2 mg/kg, and 0.2 mL of blood samples was collected from the jugular vein 5 min, 15 min, 30 min, 1 h, 3 h, 5 h, and 8 h after dosage. For the orally intragastric administration group, the dose was 10 mg/kg, and 0.2 mL of blood samples was collected from the jugular vein 15 min, 30 min, 1 h, 3 h, 5 h, 8 h, 12 h, and 24 h after dosage; and liver tissues were collected 1 h, 3 hand 24 h after dosage.
After the blood were sampled, the plasma was quickly separated by centrifugation at 4000 rpm (10 minutes, 4° C.). After the liver tissues were sampled, a mixture of methanol:water (1:1, v/v) three times the volume of the liver tissues was added to prepare a homogenate. 50 μL of plasma or homogenate sample was drawn, and 200 μL of an internal standard (30 ng/mL terfenadine, and acetonitrile) was added for precipitation. Centrifuging was carried out at 4° C. and 15,400 g for 10 minutes, and a supernatant was taken for analysis.
The concentration of a target compound was detected by LC-MS/MS. According to the plasma concentration-time curve, pharmacokinetic parameters were calculated by using a non-compartmental model (NCA) of software WinNonlin 7.0. […] Table 4. Pharmacokinetic results

[4] = tested on: HepG2 cells; assay: [2-14C]-acetate incorporation assay in HepG2 cells; type: cell-based; conditions: for IC50: Homo sapiens, HepG2 cells, read-out: IC50 [2-14C]-acetate binding assay
Protocol: [2-^14C]-Acetate Incorporation Assay in HepG2 Cells
DMEM (GIBCO, catalog number: 11965-092) was used as a complete culture medium for HepG2 cells (ATCC, catalog number: HB-8064). 10% fetal bovein serum (FBS, GIBCO, catalog number: 10099-141), penicillin (100 units/mL) and streptomycin (100 μg/mL) (Pen/Strep, GIBCO, catalog number: 15140-122) were added to a DMEM culture medium.
HepG2 cells were cultured in a 37° C. incubator holding 5% carbon dioxide, and passaged every 2-3 days.
The HepG2 cells were spread on a 24-well plate (Corning, catalog number: 3524) at a density of 2×10^5 cells-well, 500 μL per well, and cultured in a 37° C. incubator holding 5% carbon dioxide. On the fourth day of culture, 50 μL of a compound diluted at a gradient of 1:3 was added, with the final concentration of DMSO of 0.5% (v/v); and the cells were cultured for 1 hour in the incubator. 1 μCi [2-^14C]-sodium acetate (Perkin Elmer, catalog number: NEC085H001MC) was added to each well, and culture was conducted for another 5 hours. The culture medium in each well was transferred to a 15 mL centrifugal tube (BD, catalog number: 352096); 0.5 mL of 0.1 M NaOH was added; the cells were blown and washed repeatedly, and then transferred to new centrifugal tubes. Then, 1 mL of ethanol and 0.17 mL of 50% KOH solution were added to each centrifugal tube, which was then treated in a water bath at 90° C. for 1 hour. Next, the mixture was cooled to room temperature; 5 mL of petroleum ether was added to each centrifugal tube, which was turned upside down several times for mixing; the resulting mixture was centrifuged for 5 minutes (Eppendorf, Model: 5702, 1000 rpm); and an upper organic phase was discarded. 1 mL of concentrated hydrochloric acid was added to each centrifugal tube and centrifuged for 5 minutes, and 4 mL of petroleum ether was transferred into a glass tube (18×180 mm). The sample in the glass tube was dried at 64° C., and then dissolved and resuspended by addition of 400 μL of spotting solution (chloroform:n-hexane=1:1). 50 μL of the dissolved sample was drawn by a pipette (BIOHIT, Model: Proline Plus), and spotted onto an Isoplate-96-microwell plate (Perkin Elmer, catalog number: 6005040), and 200 μL of ULTIMA GOLD scintillation solution (Perkin Elmer, catalog number: 77-16061) was added, standing for 5 minutes. Finally, MicroBeta (PerkinElmer, Model: 2450) was used to read scintillation signals.
A 4-parameter logistic model or sigmoidal dose-response model in XLFit 5.3.1.3 (2006-2011 I D Business Solutions Limited) was used to fit IC50: fit=(A+((B−A)/(1+((C/x)^D)))); where the x-axis represented the log of compound concentration, and the y-axis represented count per minute (CPM).

[5] = molecular target: ACC2 (Homo sapiens (Human), UniProt O00763); assay: In vitro ACC inhibition assay (ADP-Glo), ACC2; type: biochemical; conditions: for IC50: 0.5 nM ACC, 10 μM ATP, 5 μM acetyl-CoA, read-out: Enzymatic activity IC50 ACC2
Protocol: (§1) An exemplary procedure for the in vitro ACC inhibition assay, which can be used to determine the inhibitory action of the compounds of the invention toward either ACC1 or ACC2, is as follows. The ADP-Glo™ kinase assay kit from Promega was used. The ADP-Glo™ kinase assay is a luminescent ADP detection assay to measure enzymatic activity by quantifying the amount of ADP produced during an enzyme reaction. The assay was performed in two steps; first, after the enzyme reaction, an equal volume of ADP-Glo™ reagent was added to terminate the reaction and deplete the remaining ATP. Then, the kinase detection reagent was added to simultaneously convert ADP to ATP and allow the newly synthesized ATP to be measured using a luciferase/luciferin reaction. Luminescence can be correlated to ADP concentrations by using an ATP-to-ADP conversion curve. The detailed procedure was as follows. 4.5 μL of a working solution was added to a 384-well plate. The compound was diluted at 1:3 in succession in DMSO. 0.5 μL of diluted compound solution was added to a 384-well white Optiplate assay plate. The plates were incubated at room temperature for 15 minutes. 5 μL of substrate working solution was added to each well to initiate the reaction. A final ACC reaction solution consisted of: 0.5 nM ACC, 10 μM ATP, 5 μM acetyl-CoA, and 15 mM NaHCO3; and the final concentrations of the compound were measured as follows: 1 μM, 0.333 μM, 0.111 μM, 0.037 μM, 0.0123 μM, 0.00411 μM, 0.00137 μM, 0.000457 μM, 0.000152 μM, and 0.000051 μM. The plates were incubated at room temperature for 30 minutes. 10 μL of ADP-Glo™ reagent was added, and the plates were incubated at room temperature for 40 minutes. 20 μL of kinase detection reagent was added. The plates were incubated at room temperature for 40 minutes, then read on a Perkin Elmer EnVision 2104 plate reader for luminescence in relative light unit (RLU).
(§2) Data for each concentration, as well as the positive and negative controls were averaged, and the standard deviation was calculated. Percent inhibition was calculated by the formula: 100×(average negative control−compound)/(average negative control−average positive control). The IC50 for each compound was calculated by fitting the data with a non-linear regression equation: Y=Bottom+(Top−Bottom)/(1+10^((Log IC50−X)×HillSlope)), where X is the log of compound concentration and Y is the percent inhibition.

[6] = molecular target: ACC1 (Homo sapiens (Human), UniProt Q13085); assay: In vitro ACC inhibition assay (ADP-Glo), ACC1; type: biochemical; conditions: for IC50: 0.5 nM ACC, 10 μM ATP, 5 μM acetyl-CoA, read-out: Enzymatic activity IC50 ACC1
Protocol: as §1, §2

[7] = iv 2 mg/kg, read-out: AUC0-∞ (iv)
[8] = iv 2 mg/kg, read-out: Cmax (iv)
[9] = iv 2 mg/kg, read-out: Tmax (iv)
[10] = iv 2 mg/kg, read-out: t1/2 (iv) (converted)
[11] = po 10 mg/kg, read-out: AUC0-∞ (po)
[12] = po 10 mg/kg, read-out: Cmax (po)
[13] = po 10 mg/kg, read-out: Tmax (po)
[14] = po 10 mg/kg, read-out: t1/2 (po) (converted)

ACC2 (Homo sapiens (Human), UniProt O00763), sequence (O00763 whole entry, species assumed): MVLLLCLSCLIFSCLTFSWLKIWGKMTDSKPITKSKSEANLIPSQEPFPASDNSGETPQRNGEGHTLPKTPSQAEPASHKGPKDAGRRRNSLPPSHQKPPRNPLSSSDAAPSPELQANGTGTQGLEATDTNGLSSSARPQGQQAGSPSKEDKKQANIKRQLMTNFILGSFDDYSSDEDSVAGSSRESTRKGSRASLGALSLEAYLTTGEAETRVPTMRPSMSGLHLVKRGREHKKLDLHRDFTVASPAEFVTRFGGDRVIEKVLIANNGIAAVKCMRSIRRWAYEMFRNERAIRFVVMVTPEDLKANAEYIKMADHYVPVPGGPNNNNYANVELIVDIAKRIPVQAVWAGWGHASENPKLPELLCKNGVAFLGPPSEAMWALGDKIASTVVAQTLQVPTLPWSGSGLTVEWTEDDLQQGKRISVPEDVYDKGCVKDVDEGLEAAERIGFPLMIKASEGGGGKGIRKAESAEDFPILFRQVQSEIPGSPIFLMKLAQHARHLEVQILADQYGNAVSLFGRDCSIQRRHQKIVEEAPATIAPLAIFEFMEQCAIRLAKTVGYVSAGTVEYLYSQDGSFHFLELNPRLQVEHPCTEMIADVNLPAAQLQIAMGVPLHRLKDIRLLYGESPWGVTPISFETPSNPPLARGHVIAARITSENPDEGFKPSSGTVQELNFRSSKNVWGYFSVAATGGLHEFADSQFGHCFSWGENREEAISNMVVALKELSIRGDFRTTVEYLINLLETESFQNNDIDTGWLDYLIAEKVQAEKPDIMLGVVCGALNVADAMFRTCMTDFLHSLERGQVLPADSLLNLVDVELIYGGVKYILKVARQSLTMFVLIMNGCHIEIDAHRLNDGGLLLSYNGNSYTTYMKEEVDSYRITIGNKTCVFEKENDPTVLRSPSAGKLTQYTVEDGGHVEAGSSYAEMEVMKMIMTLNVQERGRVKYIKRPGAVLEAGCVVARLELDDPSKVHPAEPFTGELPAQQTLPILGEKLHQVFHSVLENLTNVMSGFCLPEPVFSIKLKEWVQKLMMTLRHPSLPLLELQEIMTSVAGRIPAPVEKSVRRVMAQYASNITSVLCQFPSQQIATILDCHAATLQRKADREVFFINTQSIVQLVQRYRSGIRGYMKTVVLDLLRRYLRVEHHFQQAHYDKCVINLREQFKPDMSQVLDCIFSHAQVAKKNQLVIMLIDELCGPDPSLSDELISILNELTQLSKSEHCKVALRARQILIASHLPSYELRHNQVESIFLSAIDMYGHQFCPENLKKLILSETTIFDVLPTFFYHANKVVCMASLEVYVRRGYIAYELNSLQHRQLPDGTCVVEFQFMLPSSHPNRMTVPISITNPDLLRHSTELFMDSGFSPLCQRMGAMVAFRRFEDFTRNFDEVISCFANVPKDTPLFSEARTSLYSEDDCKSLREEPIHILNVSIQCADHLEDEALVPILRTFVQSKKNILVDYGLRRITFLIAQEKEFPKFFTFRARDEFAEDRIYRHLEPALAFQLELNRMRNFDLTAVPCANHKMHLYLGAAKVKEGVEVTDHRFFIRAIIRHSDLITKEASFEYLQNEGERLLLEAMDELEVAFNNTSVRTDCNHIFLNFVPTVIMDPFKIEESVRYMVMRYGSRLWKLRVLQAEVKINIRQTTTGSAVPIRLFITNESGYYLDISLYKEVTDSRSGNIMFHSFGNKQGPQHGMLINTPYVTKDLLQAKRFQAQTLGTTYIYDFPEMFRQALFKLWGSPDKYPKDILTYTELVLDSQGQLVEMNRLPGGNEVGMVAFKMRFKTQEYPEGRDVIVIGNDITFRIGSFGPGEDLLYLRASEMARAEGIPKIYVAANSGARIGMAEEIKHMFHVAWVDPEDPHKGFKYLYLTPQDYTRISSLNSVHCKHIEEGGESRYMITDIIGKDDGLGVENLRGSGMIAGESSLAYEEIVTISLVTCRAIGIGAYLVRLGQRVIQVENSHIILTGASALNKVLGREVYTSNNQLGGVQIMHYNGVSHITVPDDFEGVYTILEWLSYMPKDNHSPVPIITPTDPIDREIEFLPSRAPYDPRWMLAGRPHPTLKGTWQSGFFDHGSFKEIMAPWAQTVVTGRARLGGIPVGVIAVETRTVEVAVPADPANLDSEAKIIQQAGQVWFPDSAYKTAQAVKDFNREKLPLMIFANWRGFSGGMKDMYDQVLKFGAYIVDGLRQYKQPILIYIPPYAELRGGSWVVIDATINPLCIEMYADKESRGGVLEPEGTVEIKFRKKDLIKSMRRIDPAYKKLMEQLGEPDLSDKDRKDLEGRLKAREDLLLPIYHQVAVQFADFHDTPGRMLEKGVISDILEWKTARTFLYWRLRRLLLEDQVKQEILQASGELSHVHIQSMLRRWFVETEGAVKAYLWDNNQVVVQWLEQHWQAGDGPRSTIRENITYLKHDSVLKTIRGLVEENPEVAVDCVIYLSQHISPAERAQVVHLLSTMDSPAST

Structure (SMILES): O=C(c1c2ccccc2cc2ccccc12)N1CCC(N2CCC[C@@H](C(=O)N3CCOCC3)C2)CC1 [CP-640186]
- IC50 [1]: ~0.06 µM
- IC50 [2]: ~0.06 µM

Structure (SMILES): COc1ccccc1[C@H](Cn1c(=O)n(C(C)(C)C(=O)O)c(=O)c2c(C)c(-c3ncco3)sc21)OC1CCOCC1 [ND630, reference compound]
- Cl [3]: 0.735 L/h/kg
- Kp ([3]; po 10 mg/kg): 5.5 to 41.9
- Vd [3]: 0.48 L/kg
- AUC(0-inf) [3, 7]: 2.87 µg·h/mL
- Cmax [3, 8]: 5.63 µg/mL
- Tmax [3, 9]: 4.98 min
- half-life [3, 10]: 63.6 min
- AUC(0-inf) [3, 11]: 5.09 µg·h/mL
- Cmax [3, 12]: 2.88 µg/mL
- Tmax [3, 13]: 24 min
- half-life [3, 14]: 39 min
- bioavailability ([3]; po 10 mg/kg, iv 2 mg/kg): 35.8%

Structure (SMILES): COc1ccccc1[C@H](Cn1c(=O)n(CC2CC(C(=O)O)C2)c(=O)c2c(C)c(-c3ncco3)sc21)OC1CCOCC1 (stereo partly drawn) [c-1, (R)-3-((1-(2-(2-methoxyphenyl)-2-((tetrahydro-2H-pyran-4-yl)oxy)ethyl)-5-methyl-6-(oxazol-2-yl)-2,4-dioxa-1,4-dihydrothieno[2,3-d]pyrimidine-3(2H)-yl)methyl)cyclobutane-1-carboxylic acid]
- IC50 [4]: 0.232 µM

Structure (SMILES): COc1ccccc1[C@H](Cn1c(=O)n(C2CC(CC(=O)O)C2)c(=O)c2c(C)c(-c3ncco3)sc21)OC1CCOCC1 (stereo partly drawn) [c-3, (R)-2-(3-(1-(2-(2-methoxyphenyl)-2-((tetrahydro-2H-pyran-4-yl)oxy)ethyl)-5-methyl-6-(oxazol-2-yl)-2,4-dioxo-1,4-dihydrothieno[2,3-d]pyrimidine-3(2H)-yl)cyclobutyl)acetic acid]
- inhibitory properties against ACC2 (in words) [5]: good inhibitory properties
- IC50 [5]: 0.003 µM
- inhibitory properties against HepG2 cells (in words) [4]: good inhibitory properties
- IC50 [4]: 0.0185 µM
- inhibitory properties against ACC1 (in words) [6]: good inhibitory properties
- IC50 [6]: 0.000688 µM

Structure (SMILES): COc1ccccc1[C@H](Cn1c(=O)n([C@H]2C[C@H](CC(=O)O)C2)c(=O)c2c(C)c(-c3ncco3)sc21)OC1CCOCC1 [c-3-1, 2-((1R,3r)-3-(1-((R)-2-(2-methoxyphenyl)-2-((tetrahydro-2H-pyran-4-yl)oxy)ethyl)-5-methyl-6-(oxazol-2-yl)-2,4-dioxo-1,2-dihydrothieno[2,3-d]pyrimidine-3(4H)-yl)cyclobutyl)acetic acid]
- inhibitory properties against ACC2 (in words) [5]: good inhibitory properties
- IC50 [5]: 0.009 µM
- Cl [3]: 0.642 L/h/kg
- Kp ([3]; po 10 mg/kg): 9.46 to 17.3
- Vd [3]: 0.826 L/kg
- AUC(0-inf) [3, 7]: 3.12 µg·h/mL
- Cmax [3, 8]: 4.1 µg/mL
- Tmax [3, 9]: 5 min
- half-life [3, 10]: 104 min
- AUC(0-inf) [3, 11]: 15.7 µg·h/mL
- Cmax [3, 12]: 7.78 µg/mL
- Tmax [3, 13]: 30 min
- half-life [3, 14]: 279 min
- bioavailability ([3]; po 10 mg/kg, iv 2 mg/kg): 99.6%
- inhibitory properties against HepG2 cells (in words) [4]: good inhibitory properties
- IC50 [4]: 0.0131 µM
- inhibitory properties against ACC1 (in words) [6]: good inhibitory properties
- IC50 [6]: 0.000836 µM

Structure (SMILES): COc1ccccc1[C@H](Cn1c(=O)n([C@H]2C[C@@H](CC(=O)O)C2)c(=O)c2c(C)c(-c3ncco3)sc21)OC1CCOCC1 [c-3-2, 2-((1S,3s)-3-(1-((R)-2-(2-methoxyphenyl)-2-((tetrahydro-2H-pyran-4-yl)oxy)ethyl)-5-methyl-6-(oxazol-2-yl)-2,4-dioxo-1,2-dihydrothieno[2,3-d]pyrimidine-3(4H)-yl)cyclobutyl)acetic acid]
- inhibitory properties against ACC2 (in words) [5]: good inhibitory properties
- IC50 [5]: 0.008 µM
- Cl [3]: 1.5 L/h/kg
- Kp ([3]; po 10 mg/kg): 20.6 to 30
- Vd [3]: 0.839 L/kg
- AUC(0-inf) [3, 7]: 1.39 µg·h/mL
- Cmax [3, 8]: 3.11 µg/mL
- Tmax [3, 9]: 5 min
- half-life [3, 10]: 54 min
- AUC(0-inf) [3, 11]: 4.35 µg·h/mL
- Cmax [3, 12]: 3.24 µg/mL
- Tmax [3, 13]: 24 min
- half-life [3, 14]: 289 min
- bioavailability ([3]; po 10 mg/kg, iv 2 mg/kg): 62.3%
- inhibitory properties against HepG2 cells (in words) [4]: good inhibitory properties
- IC50 [4]: 0.018 µM
- inhibitory properties against ACC1 (in words) [6]: good inhibitory properties
- IC50 [6]: 0.00112 µM
